Data from patent publication US20150176079A1, “MARKERS FOR CANCER” (OSLO UNIVERSITETSSYKEHUS HF, priority 2007, published 2015).

What was measured:
Type in all cases: cell-based
[1] = test system: CNRIP1 mRNA expression in colon cancer cell lines; experiment: Quantitative gene expression of CNRIP1 in colon cancer cell lines before and after epigenetic drug treatment; details: for relative expression of CNRIP1 (fold change, untreated sample as calibrator): six colon cancer cell lines HT29, SW48, HCT15, SW480, RKO, LS1034, AZA 1 or 10 uM 72 h, TSA 0.5 μM 12 h, combination 1 μM AZA 72 h + 0.5 μM TSA last 12 h; for increase in relative expression of CNRIP1, the two doses compared: low dose 1 uM versus high dose 10 uM, 72 h, six colon cancer cell lines
Protocol: (§1) Gene expression was measured in 6 colon cancer cell lines before and after treatment with epigenetic drugs. The relative expression levels of SPG20, INA and CNRIP1 in the colon cancer cell lines (n=6) was measured. […] The mean expression of ACTB and GUSB was used as endogenous control. TaqMan real-time fluorescence detection (Applied Biosystems, Foster city, CA) was used to quantify mRNA levels in the colon cancer cell lines, as previously described [Gibson et al. and Heid et al.]. cDNA was generated from five μg total RNA using a High-Capacity cDNA Archive kit (Applied Biosystems), including random primers according to the manufacturers' protocol. cDNA from the genes of interest (SPG20, INA and CNRIP1) and the endogenous controls (ACTB and GUSB) were amplified separately by the 7900HT Sequence Detection System (Applied Biosystems) following the protocol recommended by supplier. All samples were analyzed in triplicates. The expression levels were calculated as fold changes using the […] method and the untreated sample as a calibrator. In order to adjust for the possibly variable amounts of cDNA input in each PCR, we normalized the expression quantity of the target genes with the housekeeping genes ACTB and GUSB. Six colon cancer cell lines, HCT15, HT29, SW48, SW480, RKO and LS1034 were subjected to treatment with the demethylating drug 5-aza-2'deoxycytidine (1 μM for 72 h and 10 uM for 72 h), the histone deacetylase inhibitor trichostatin A (0.5 μM for 12 h) and a combination of both (1 μM 5-aza-2'deoxycytidine for 72 h, 0.5 μM trichostatin A added the last 12 h).

[2] = test system: SPG20 mRNA expression in colon cancer cell lines; experiment: Quantitative gene expression of SPG20 in colon cancer cell lines before and after epigenetic drug treatment; details: for relative expression of SPG20 (fold change, untreated sample as calibrator): six colon cancer cell lines HT29, SW48, HCT15, SW480, RKO, LS1034, AZA 1 or 10 uM 72 h, TSA 0.5 μM 12 h, combination 1 μM AZA 72 h + 0.5 μM TSA last 12 h; for increase in relative expression of SPG20, the two doses compared: low dose 1 uM versus high dose 10 uM, 72 h, six colon cancer cell lines
Protocol: as §1

[3] = test system: MAL mRNA expression in colon cancer cell lines; experiment: Real-time quantitative gene expression of MAL in colon cancer cell lines after drug treatment
Protocol: Six colon cancer cell lines, HCT15, HT29, SW48, SW480, RKO and LS1034 were subjected to treatment with the demethylating drug 5-aza-2′deoxycytidine (1 μM for 72 h and 10 uM for 72 h), the histone deacetylase inhibitor trichostatin A (0.5 μM for 12 h) and a combination of both (1 μM 5-aza-2′deoxycytidine for 72 h, 0.5 μM trichostatin A added the last 12 h). Total RNA was extracted from cell lines (n=46), tumours (n=16), and normal tissue (n=3) using Trizol (Invitrogen, Carlsbad, Calif., USA) and the RNA concentration was determined using ND-1000 Nanodrop (NanoDrop Technologies, Wilmington, Del., USA). For each sample, total RNA was converted to cDNA using a High-Capacity cDNA Archive kit (Applied Biosystems), including random primers. MAL (Hs00242749_m1 and Hs00360838_m1) and the endogenous controls ACTB (Hs99999903_m1) and GUSB (Hs99999908_m1) were amplified separately in 96 well fast plates following the recommended protocol (Applied Biosystems), and the real time quantitative gene expression was measured by the 7900HT Sequence Detection System (Applied Biosystems). All samples were analyzed in triplicate, and the median value was used for data analysis. The human universal reference RNA (containing a mixture of RNA from ten different cell lines; Stratagene) was used to generate a standard curve, and the resulting quantitative expression levels of MAL were normalized against the mean value of the two endogenous controls.

[4] = test system: INA mRNA expression in colon cancer cell lines; experiment: Quantitative gene expression of INA in colon cancer cell lines before and after epigenetic drug treatment; details: for relative expression of INA (fold change, untreated sample as calibrator): six colon cancer cell lines HT29, SW48, HCT15, SW480, RKO, LS1034, AZA 1 or 10 uM 72 h, TSA 0.5 μM 12 h, combination 1 μM AZA 72 h + 0.5 μM TSA last 12 h; for increase in relative expression of INA, the two doses compared: low dose 1 uM versus high dose 10 uM, 72 h, six colon cancer cell lines
Protocol: as §1

[5] = test system: MAL promoter methylation in colon cancer cell lines; experiment: Methylation-specific PCR (MSP) of the MAL promoter in colon cancer cell lines after drug treatment; details: colon cancer cell lines HT29 and HCT15 (FIG. 9)
Protocol: Six colon cancer cell lines, HCT15, HT29, SW48, SW480, RKO and LS1034 were subjected to treatment with the demethylating drug 5-aza-2′deoxycytidine (1 μM for 72 h and 10 uM for 72 h), the histone deacetylase inhibitor trichostatin A (0.5 μM for 12 h) and a combination of both (1 μM 5-aza-2′deoxycytidine for 72 h, 0.5 μM trichostatin A added the last 12 h). DNA from primary tumours and normal mucosa samples was bisulphite treated as previously described. DNA from colon cancer cell lines was bisulphite treated using the EpiTect bisulphite kit (Qiagen Inc., Valencia, Calif., USA). The promoter methylation status of all genes was analyzed by methylation-specific polymerase chain reaction (MSP) using the HotStarTaq DNA polymerase (Qiagen). All results were confirmed with a second independent round of MSP. Human placental DNA (Sigma Chemical Co, St. Louis, Mo., USA) treated in vitro with SssI methyltransferase (New England Biolabs Inc., Beverly, Mass., USA) was used as a positive control for the methylated MSP reaction, whereas DNA from normal lymphocytes was used as a positive control for unmethylated alleles. Water was used as a negative control in both reactions.

[6] = colon cancer cell lines HT29 and HCT15 (FIG. 9)
[7] = listed as 5-aza-2′deoxycytidine

SMILES	relative expression of CNRIP1 (fold change, untreated sample as calibrator) [1]	relative expression of SPG20 (fold change, untreated sample as calibrator) [2]	MAL mRNA expression [3, 6]	relative expression of INA (fold change, untreated sample as calibrator) [4]	increase in relative expression of CNRIP1, the two doses compared [1]	increase in relative expression of CNRIP1, the two doses compared [1, 7]	increase in relative expression of SPG20, the two doses compared [2]	increase in relative expression of SPG20, the two doses compared [2, 7]	MAL mRNA expression ([3]; HCT15 cells)	MAL mRNA expression ([3]; HT29 cells)	increase in relative expression of INA, the two doses compared [4]	increase in relative expression of INA, the two doses compared [4, 7]	promoter methylation of MAL (MSP) [5]
CC(/C=C/C(=O)NO)=C\[C@@H](C)C(=O)c1ccc(N(C)C)cc1 [trichostatin A]	did not increase the gene expression	did not increase the gene expression	did not increase MAL expression	did not increase the gene expression	–	–	–	–	–	–	–	–	–
Nc1ncn([C@H]2C[C@H](O)[C@@H](CO)O2)c(=O)n1 [5-aza-2′-deoxycytidine]	Up-regulated mRNA expression	Up-regulated mRNA expression	up-regulated mRNA expression	Up-regulated mRNA expression	comparable effects	comparable increases	comparable effects	comparable increases	more moderate levels	high expression	comparable effects	comparable increases	Decreased promoter methylation
